We go through four compounds from US20160287514A1 (PIERRE FABRE MEDICAMENT, priority 2012, published 2016).

As usually defined, the half-life is the time in which the quantity being followed falls by half.

Series [1] is classed as physicochemical.
A further series concerns pharyngitis. Conditions: ibuprofen 400 mg; meta-analysis; cited from earlier work.
The conditions of series [2]: in vivo; cited from earlier work.

Where two headings read alike, the source gives them in different places.

`CC(C)Cc1ccc(C(C)C(=O)O)cc1.O.O.[Na]` (centres unmarked) [Sod, ibuprofen sodium dihydrate]: the “content of impurities compared among the salts” value in series [1] (regardless of the long term temperature and humidity conditions) was “lowest content of impurities”.

`CC(C)Cc1ccc(C(C)C(=O)O)cc1` (centres unmarked) [ibuprofen, 2-(4-(2-methylpropyl)phenyl)propanoic acid]: the “pain relief in pharyngitis compared with acetaminophene (1000 mg, paracetamol)” value with pharyngitis is recorded as “significant superiority”.

For `CC(C(=O)O)c1ccc(-c2ccccc2)c(F)c1` (centres unmarked) [flurbiprofen], the half-life in series [2] was 4 h.

For ibuprofen lysinate, the “total content of impurities” value was below 0.1 percentage in series [1] (T0, closed pill box); 0.15 percentage in series [1] (T1 month, 25° C., RH 60, closed pill box); 0.19 percentage in series [1] (T1 month, 40° C., RH 75, closed pill box); 0.53 percentage in series [1] (T1 month, 40° C., RH 75, open pill box); 0.15 percentage in series [1] (T2 months, 25° C., RH 60, closed pill box); 0.21 percentage in series [1] (T2 months, 40° C., RH 75, closed pill box). The “total content of impurities” value in series [1] (T2 months, 40° C., RH 75, open pill box) came to 2.21 percentage; in series [1] (T3 months, 25° C., RH 60, closed pill box) it was 0.17 percentage; in series [1] (T3 months, 40° C., RH 75, closed pill box), 0.27 percentage; in series [1] (T3 months, 40° C., RH 75, open pill box), 3.10 percentage; in series [1] (T15 d, 40° C., RH 75, closed pill box), 0.28 percentage.
